# According to patent publication US12433903B2 (priority 2021, dated 2025):
# Key:
# all the UGTs combined = assay: UGT reaction phenotyping, all the UGTs combined; type: in vitro ADME, Human
# Text: Experimental Summary: UGT Reaction Phenotyping (7 Isoforms).
# [1] = system: cryopreserved hepatocytes; assay: Hepatocyte stability and metabolite profiling, human; type: in vitro ADME; details: human hepatocyte samples, 40 and 60 minute
# Description: (§1) The objective of this study was to investigate the stability of the test compound, CBG, in human, rat, dog, mouse, monkey and minipig cryopreserved hepatocytes. Follow-on metabolite profiling was performed.
# (§2) CBG was incubated up to 2 hr with cryopreserved hepatocytes. Cryopreserved hepatocytes in suspension were added to test compound in supplemented media following pre-incubation to initiate the reaction and the reactions were stopped by organic solvent at the appropriate time points. The termination plates were centrifuged and sample supernatants were analysed using Cyprotex generic LC MS/MS conditions to generate intrinsic clearance values for CBG. Two control compounds for each species were included in the assay and if the values for these compounds were not within the specified limits the results were rejected and the experiment repeated.
# (§3) Following the hepatocyte stability assay the samples were 59 tilized for metabolite profiling using suitable high-resolution LC-MS/MS conditions. The 40 and 60 minute human samples, 20 and 120 minute rat samples, 10 and 20 minute dog and monkey samples, 20 and 60 minute mouse samples, and 40 and 120 minute minipig samples were compared against the 0 minute control sample to establish which and how many metabolites were formed. […]
# (§4) The areas and percentages reported for the parent and metabolites were calculated using the XIC data. […]
# [2] = system: cryopreserved hepatocytes; assay: Hepatocyte stability and metabolite profiling, rat; type: in vitro ADME; details: rat hepatocyte samples, 20 and 120 minute
# Description: as §1, §2, §3, §4
# [3] = system: cryopreserved hepatocytes; assay: Hepatocyte stability and metabolite profiling, dog; type: in vitro ADME; details: dog hepatocyte samples, 10 and 20 minute
# Description: as §1, §2, §3, §4
# rUGT1A9 = biological target: T1, rUGT1A9 (Homo sapiens, UniProt O60656); assay: Inhibition of CBG glucuronidation by Compound 1, rUGT1A9; type: in vitro ADME; details: for CBG detected (CBG loss) / CBG detected, Percent of control / CBG glucuronide formed / CBG glucuronide formed, Percent of control: 4 min
# T1 sequence (O60656 26-530): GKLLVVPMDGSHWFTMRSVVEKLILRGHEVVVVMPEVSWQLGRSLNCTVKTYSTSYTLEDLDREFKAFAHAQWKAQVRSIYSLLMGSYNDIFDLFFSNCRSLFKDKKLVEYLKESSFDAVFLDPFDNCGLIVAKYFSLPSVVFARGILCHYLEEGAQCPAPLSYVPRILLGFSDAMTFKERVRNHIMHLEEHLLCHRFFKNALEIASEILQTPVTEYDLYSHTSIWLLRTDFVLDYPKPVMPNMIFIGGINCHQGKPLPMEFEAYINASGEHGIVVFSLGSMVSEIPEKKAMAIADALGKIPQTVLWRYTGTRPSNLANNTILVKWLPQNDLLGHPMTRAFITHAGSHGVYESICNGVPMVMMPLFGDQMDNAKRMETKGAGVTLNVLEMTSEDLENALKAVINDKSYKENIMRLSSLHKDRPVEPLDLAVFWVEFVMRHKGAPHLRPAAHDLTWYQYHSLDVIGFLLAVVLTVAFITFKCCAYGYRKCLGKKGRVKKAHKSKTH
# Description: The purpose of this experiment was to determine if Compound 1 can inhibit the glucuronidation of CBG, as both are substrates for the two major isoforms responsible for CBG glucuronidation.
# The ability of Compound 1 to inhibit the metabolism of CBG by UGT1A9 and UGT2B7 enzymes was investigated to ascertain the IC50 values for direct inhibition. The incubation conditions (substrate concentration, incubation time and protein concentration) were determined in Part 2 of the protocol such that CBG metabolism remains near initial rate conditions (e.g., 20-30% substrate loss).
# Preliminary experiments were conducted in Part I of the protocol, first to establish the HPLC/MS/MS bioanalytical methods for CBG and CBG glucuronide. […] The second set of preliminary experiments (Part 2), as mentioned, were conducted to optimize the incubation conditions as described above. Incubations (at 37° C.) contained Tris-HCl buffer (100 mM, pH 7.7), MgCl2 (10 mM), EDTA (1 mM, pH 7.4) and UDP-glucuronic acid (UDPGA, 10 mM). CBG was added to each incubation in DMSO such that the final percent of DMSO was 1% v/v, or less. Reactions were terminated by the addition of an equal volume of stop reagent, acetonitrile containing an internal standard. The samples were centrifuged (e.g., 920 RCF for 10 minutes at 10° C.), and the supernatant fractions were analyzed by LC-MS/MS to determine the amount of CBG remaining and formation of one metabolite (CBG glucuronide).
# To examine its ability to act as a direct inhibitor of the above listed enzymes, Compound 1 was be added to recombinant human UGT enzyme together with CBG. Reactions were initiated with UDPGA and were carried out in duplicate. For all assays, reactions were terminated by the addition of acetonitrile with or without 2% v/v formic acid, including the internal standard.
# Authentic metabolite reference standards were used for quantitation of the probe substrate metabolites and as internal standards. Based on the information obtained in the Part 2 experiments, the following table summarizes the experiments performed, assessing the inhibitory effects of Compound 1 was conducted as follows:
# The amounts of CBG present at the end of the incubation periods was determined. For inhibition to have occurred, the amounts of CBG present at the end of the incubation period needed to increase, and the amounts of glucuronide formed needed to decrease.
smiles,measurement,setting,value
"CCCCCc1cc(O)c(C/C=C(\C)CCC=C(C)C)c(O)c1 [CBG, cannabigerol]",activity of UGT2B7 relative to UGT1A9,all the UGTs combined,approximately 1/10
same,share of the activity for all the UGTs combined represented by UGT1A9,all the UGTs combined,~80%
same,metabolites observed (number),[1],Seven
same,metabolites observed (number),[2],eight
same,metabolites observed (number),[3],three
"CCCCCc1cc(O)c(C/C=C(\C)CCC=C(C)C)c(OC)c1 [Compound 1, (E)-2-(3,7-dimethylocta-2,6-dien-1-yl)-3-methoxy-5-pentylphenol]",CBG detected (CBG loss),rUGT1A9; 10 μM CBG + 0.01 μM Compound 1,1250 pmol
same,"CBG detected, Percent of control",rUGT1A9; 10 μM CBG + 0.01 μM Compound 1,109
same,CBG glucuronide formed,rUGT1A9; 10 μM CBG + 0.01 μM Compound 1,350000 area ratio
same,"CBG glucuronide formed, Percent of control",rUGT1A9; 10 μM CBG + 0.01 μM Compound 1,94.4
same,CBG detected (CBG loss),rUGT1A9; 10 μM CBG + 0.03 μM Compound 1,1250 pmol
same,"CBG detected, Percent of control",rUGT1A9; 10 μM CBG + 0.03 μM Compound 1,110
same,CBG glucuronide formed,rUGT1A9; 10 μM CBG + 0.03 μM Compound 1,360000 area ratio
same,"CBG glucuronide formed, Percent of control",rUGT1A9; 10 μM CBG + 0.03 μM Compound 1,97.1
same,CBG detected (CBG loss),rUGT1A9; 10 μM CBG + 0.1 μM Compound 1,1280 pmol
same,"CBG detected, Percent of control",rUGT1A9; 10 μM CBG + 0.1 μM Compound 1,112
same,"CBG glucuronide formed, Percent of control",rUGT1A9; 10 μM CBG + 0.1 μM Compound 1,92.0
same,CBG detected (CBG loss),rUGT1A9; 10 μM CBG + 0.3 μM Compound 1,1300 pmol
same,"CBG detected, Percent of control",rUGT1A9; 10 μM CBG + 0.3 μM Compound 1,114
same,CBG glucuronide formed,rUGT1A9; 10 μM CBG + 0.3 μM Compound 1,350000 area ratio
same,"CBG glucuronide formed, Percent of control",rUGT1A9; 10 μM CBG + 0.3 μM Compound 1,94.4
same,CBG detected (CBG loss),rUGT1A9; 10 μM CBG + 1 μM Compound 1,1210 pmol
same,"CBG detected, Percent of control",rUGT1A9; 10 μM CBG + 1 μM Compound 1,106
same,"CBG glucuronide formed, Percent of control",rUGT1A9; 10 μM CBG + 1 μM Compound 1,92.6
same,CBG detected (CBG loss),rUGT1A9; 10 μM CBG + 3 μM Compound 1,1200 pmol
same,"CBG detected, Percent of control",rUGT1A9; 10 μM CBG + 3 μM Compound 1,105
same,"CBG glucuronide formed, Percent of control",rUGT1A9; 10 μM CBG + 3 μM Compound 1,93.6
same,CBG detected (CBG loss),rUGT1A9; 10 μM CBG + 10 μM Compound 1,1140 pmol
same,"CBG detected, Percent of control",rUGT1A9; 10 μM CBG + 10 μM Compound 1,99.8
same,"CBG glucuronide formed, Percent of control",rUGT1A9; 10 μM CBG + 10 μM Compound 1,92.8
same,metabolism of CBG in the presence of Compound 1 (in words),"rUGT1A9; 0.01-10 μM Compound 1, CBG disappearance or glucuronide formation",essentially unchanged
